Several values for one entry are separate records, joined by “and”; a condition that tells them apart may be missing. Equal entries are not always repeated.
Details: 283.15 K, Liquid, Vibrating tube method

CCCCCCCC(=O)OCC(COC(=O)CCCCCCC)(COC(=O)CCCCCCC)COC(=O)CCCCCCC [pentaerythritol tetraoctanoate]
Details	mass density
105.3 kPa	970.3 kg/m3
105.5 kPa	970.3 kg/m3 and 970.4 kg/m3
105.6 kPa	970.3 kg/m3
105.8 kPa	970.4 kg/m3
106.7 kPa	970.3 kg/m3
110 kPa	970.3 kg/m3
125.3 kPa	970.3 kg/m3
155.9 kPa	970.3 kg/m3
203.3 kPa	970.4 kg/m3
224.9 kPa	970.3 kg/m3
235.2 kPa	970.4 kg/m3
246.6 kPa	970.5 kg/m3
262.8 kPa	970.4 kg/m3
277.9 kPa	970.4 kg/m3
295.3 kPa	970.4 kg/m3
319.3 kPa	970.4 kg/m3
342 kPa	970.5 kg/m3
369 kPa	970.5 kg/m3
405 kPa	970.4 kg/m3
438.1 kPa	970.4 kg/m3
468.4 kPa	970.6 kg/m3
495.5 kPa	970.6 kg/m3
514.6 kPa	970.6 kg/m3
534.1 kPa	970.6 kg/m3
557.4 kPa	970.6 kg/m3
575.1 kPa	970.6 kg/m3
593.5 kPa	970.7 kg/m3
616.6 kPa	970.7 kg/m3
636.3 kPa	970.5 kg/m3
653.5 kPa	970.7 kg/m3
671.5 kPa	970.7 kg/m3
693.4 kPa	970.7 kg/m3
713.6 kPa	970.7 kg/m3
734.1 kPa	970.7 kg/m3
760.8 kPa	970.8 kg/m3
784.3 kPa	970.7 kg/m3
808.6 kPa	970.7 kg/m3
834.5 kPa	970.7 kg/m3
866.8 kPa	970.7 kg/m3
896 kPa	970.7 kg/m3
926.4 kPa	970.8 kg/m3
962 kPa	970.8 kg/m3
986 kPa	970.9 kg/m3
1010.4 kPa	970.9 kg/m3
1035.5 kPa	970.8 kg/m3
1066.4 kPa	970.9 kg/m3
1094 kPa	970.9 kg/m3
1122.1 kPa	970.9 kg/m3
1158.4 kPa	971 kg/m3
1189.3 kPa	971 kg/m3
1219.2 kPa	971 kg/m3
1247.3 kPa	971 kg/m3
1270.1 kPa	971 kg/m3
1293 kPa	971 kg/m3
1317.3 kPa	971 kg/m3
1349.3 kPa	971.1 kg/m3
1370.1 kPa	971 kg/m3
1401.5 kPa	971 kg/m3
1428.9 kPa	971 kg/m3
1457.4 kPa	971 kg/m3
1492.1 kPa	971.2 kg/m3
1522.7 kPa	971.1 kg/m3
1554.3 kPa	971.1 kg/m3
1587.1 kPa	971.2 kg/m3
1627.7 kPa	971.1 kg/m3
1662.8 kPa	971.2 kg/m3
1700.3 kPa	971.2 kg/m3
1747.1 kPa	971.3 kg/m3
1789.7 kPa	971.2 kg/m3
1830.4 kPa	971.3 kg/m3
1873.1 kPa	971.3 kg/m3
1917.2 kPa	971.4 kg/m3
1972.4 kPa	971.4 kg/m3
2020.6 kPa	971.4 kg/m3
2068.2 kPa	971.4 kg/m3
2110.9 kPa	971.5 kg/m3
2137.9 kPa	971.4 kg/m3
2158.6 kPa	971.5 kg/m3
2179.8 kPa	971.5 kg/m3
2205.6 kPa	971.5 kg/m3
2227.8 kPa	971.7 kg/m3
2250.5 kPa	971.5 kg/m3
2273.6 kPa	971.6 kg/m3
2301.4 kPa	971.6 kg/m3
2325.3 kPa	971.7 kg/m3
2348.9 kPa	971.5 kg/m3
2373 kPa	971.7 kg/m3
2403 kPa	971.7 kg/m3
2427.5 kPa	971.6 kg/m3
2457.8 kPa	971.7 kg/m3
2484 kPa	971.6 kg/m3
2510.7 kPa	971.8 kg/m3
2543.2 kPa	971.8 kg/m3
2571.1 kPa	971.7 kg/m3
2600.6 kPa	971.7 kg/m3
2629 kPa	971.8 kg/m3
2663.7 kPa	971.7 kg/m3
2693.4 kPa	971.8 kg/m3
2723.9 kPa	971.8 kg/m3
2760.8 kPa	971.9 kg/m3
2792.7 kPa	971.8 kg/m3
2824.8 kPa	971.9 kg/m3
2857.6 kPa	971.9 kg/m3
2897.6 kPa	971.9 kg/m3
2931.4 kPa	971.9 kg/m3
2966.3 kPa	972 kg/m3
3008.8 kPa	972 kg/m3
3045.9 kPa	972.1 kg/m3
3082.4 kPa	972.1 kg/m3
3127.9 kPa	971.9 kg/m3
3166.3 kPa	972 kg/m3
3205 kPa	972.1 kg/m3
3245 kPa	972 kg/m3
3285.9 kPa	972.1 kg/m3
3335.9 kPa	972.2 kg/m3
3377.6 kPa	972.1 kg/m3
3420.8 kPa	972.2 kg/m3
3473.3 kPa	972.3 kg/m3
3517.6 kPa	972.2 kg/m3
3564.3 kPa	972.3 kg/m3
3620 kPa	972.3 kg/m3
3667.5 kPa	972.3 kg/m3
3715.9 kPa	972.5 kg/m3
3763.5 kPa	972.5 kg/m3
3809.1 kPa	972.5 kg/m3
3824.1 kPa	972.4 kg/m3
3841.3 kPa	972.6 kg/m3
3855.7 kPa	972.5 kg/m3
3869.7 kPa	972.6 kg/m3
3883.9 kPa	972.5 kg/m3
3899.8 kPa	972.5 kg/m3
4015.4 kPa	972.5 kg/m3
4176.4 kPa	972.7 kg/m3
4313.4 kPa	972.7 kg/m3
4335.2 kPa	972.8 kg/m3
4353.7 kPa	972.9 kg/m3
4372.3 kPa	972.8 kg/m3
4391.7 kPa	972.7 kg/m3
4414.3 kPa	972.8 kg/m3
4433.6 kPa	972.8 kg/m3
4453.1 kPa	972.8 kg/m3
4475.4 kPa	972.8 kg/m3
4475.5 kPa	972.8 kg/m3
4478.4 kPa	972.9 kg/m3
4490.5 kPa	972.9 kg/m3
4492.3 kPa	972.8 kg/m3
4499.1 kPa	972.9 kg/m3
4499.9 kPa	972.9 kg/m3
4501.9 kPa	972.9 kg/m3
4502.4 kPa	972.9 kg/m3
4503 kPa	972.9 kg/m3 and 972.8 kg/m3
4503.5 kPa	972.8 kg/m3 and 972.9 kg/m3
4505.4 kPa	972.9 kg/m3
4508 kPa	973 kg/m3
4510.6 kPa	972.9 kg/m3
4512.1 kPa	972.8 kg/m3
4513.2 kPa	972.9 kg/m3
4519.1 kPa	972.9 kg/m3
4544.7 kPa	972.8 kg/m3
4566.3 kPa	972.8 kg/m3
4589 kPa	972.9 kg/m3
4613.1 kPa	972.9 kg/m3
4644 kPa	972.9 kg/m3
4671.2 kPa	973 kg/m3
4696.3 kPa	973 kg/m3
4730.1 kPa	973 kg/m3
4758.6 kPa	973 kg/m3
4787.7 kPa	973.1 kg/m3
4817.5 kPa	973.1 kg/m3
4847.6 kPa	972.9 kg/m3
4883.9 kPa	973 kg/m3
4914.4 kPa	973.1 kg/m3
4945.7 kPa	973.1 kg/m3
4982.7 kPa	973.1 kg/m3
5014 kPa	973.2 kg/m3
5046.2 kPa	973.1 kg/m3
5085.5 kPa	973.2 kg/m3
5118.2 kPa	973.2 kg/m3
5152.1 kPa	973.1 kg/m3
5187.4 kPa	973.3 kg/m3
5230.5 kPa	973.3 kg/m3
5268 kPa	973.4 kg/m3
5301.1 kPa	973.3 kg/m3
5328.4 kPa	973.3 kg/m3
5360.9 kPa	973.4 kg/m3
5388.3 kPa	973.3 kg/m3
5416.4 kPa	973.3 kg/m3
5445 kPa	973.4 kg/m3
5479.2 kPa	973.5 kg/m3
5507.9 kPa	973.4 kg/m3
5537.9 kPa	973.4 kg/m3
5567.3 kPa	973.5 kg/m3
5603.1 kPa	973.6 kg/m3
5664.1 kPa	973.4 kg/m3
5695.6 kPa	973.6 kg/m3
5733.6 kPa	973.7 kg/m3
5766.5 kPa	973.5 kg/m3
5806.4 kPa	973.6 kg/m3
5839.8 kPa	973.6 kg/m3
5864 kPa	973.6 kg/m3
5890.1 kPa	973.8 kg/m3
5912.2 kPa	973.6 kg/m3
5934.9 kPa	973.7 kg/m3
5958.4 kPa	973.7 kg/m3
5985.4 kPa	973.8 kg/m3
6009 kPa	973.7 kg/m3
6033.2 kPa	973.8 kg/m3
6058.3 kPa	973.9 kg/m3
6083.5 kPa	973.7 kg/m3
6114.7 kPa	973.7 kg/m3
6133.8 kPa	973.8 kg/m3
6146.1 kPa	973.7 kg/m3
6160.5 kPa	973.8 kg/m3
6172.9 kPa	973.9 kg/m3
6185.2 kPa	973.8 kg/m3
6197.6 kPa	973.8 kg/m3
6211.8 kPa	973.8 kg/m3
6223.9 kPa	973.8 kg/m3
6236.2 kPa	973.9 kg/m3
6249.3 kPa	973.9 kg/m3
6264.2 kPa	973.9 kg/m3
6277.1 kPa	974.1 kg/m3
6289.8 kPa	973.9 kg/m3
6302.4 kPa	973.9 kg/m3
6317.2 kPa	973.8 kg/m3
6330 kPa	973.9 kg/m3
6342.8 kPa	974 kg/m3
6358 kPa	974 kg/m3
6370.8 kPa	973.9 kg/m3
6383.6 kPa	973.9 kg/m3
6399 kPa	973.9 kg/m3
6412.5 kPa	974 kg/m3
6425.5 kPa	973.9 kg/m3
6438.7 kPa	974 kg/m3
6452 kPa	974 kg/m3
6467.9 kPa	974 kg/m3
6481 kPa	974 kg/m3
6494.5 kPa	974.2 kg/m3
6510.4 kPa	974 kg/m3
6523.9 kPa	974 kg/m3
6537.9 kPa	974.1 kg/m3
6551.3 kPa	973.9 kg/m3
6567.7 kPa	974.1 kg/m3
6581.8 kPa	974 kg/m3
6596.4 kPa	974.1 kg/m3
6610.8 kPa	974.1 kg/m3
6627.5 kPa	974.1 kg/m3
6641.5 kPa	974.1 kg/m3
6655.5 kPa	974 kg/m3
6669.7 kPa	974.1 kg/m3
6686.6 kPa	974.2 kg/m3
6700.8 kPa	974.1 kg/m3
6715.1 kPa	974.1 kg/m3
6732.2 kPa	974.1 kg/m3
6746.8 kPa	974.1 kg/m3
6761.4 kPa	974.2 kg/m3
6776.5 kPa	974.1 kg/m3
6793.7 kPa	974.1 kg/m3
6808.6 kPa	974.2 kg/m3
6823.5 kPa	974.2 kg/m3
6838.3 kPa	974 kg/m3
6856.4 kPa	974.1 kg/m3
6871.7 kPa	974.2 kg/m3
6886.9 kPa	974.2 kg/m3
6902.1 kPa	974.3 kg/m3
6920.2 kPa	974.3 kg/m3
6935.4 kPa	974.3 kg/m3
6950.9 kPa	974.3 kg/m3
6969.4 kPa	974.3 kg/m3
6985 kPa	974.3 kg/m3
7001 kPa	974.3 kg/m3
7016.8 kPa	974.3 kg/m3
7035.6 kPa	974.3 kg/m3
7051.3 kPa	974.3 kg/m3
7067 kPa	974.3 kg/m3
7083.6 kPa	974.3 kg/m3
7102.8 kPa	974.3 kg/m3
7119 kPa	974.3 kg/m3
7135.2 kPa	974.4 kg/m3
7154.7 kPa	974.4 kg/m3
7171.1 kPa	974.3 kg/m3
7187.5 kPa	974.3 kg/m3
7204.5 kPa	974.4 kg/m3
7221.2 kPa	974.5 kg/m3
7241.1 kPa	974.5 kg/m3
7257.8 kPa	974.4 kg/m3
7274.9 kPa	974.6 kg/m3
7295 kPa	974.5 kg/m3
7311.7 kPa	974.4 kg/m3
7329.3 kPa	974.4 kg/m3
7346.6 kPa	974.5 kg/m3
7367.1 kPa	974.6 kg/m3
7384.6 kPa	974.5 kg/m3
7402.3 kPa	974.6 kg/m3
7423.4 kPa	974.5 kg/m3

Reference: the NIST ThermoML archive (doi:10.1021/je060271a)
